Tests used:
Format in all cases: physicochemical
[1] = Suspension competitive test between Crystalline Form III and Crystalline Form XVIII (EtOAc, MTBE, n-butyl alcohol; solid tested by XRPD); details: for Crystalline Form: solid by XRPD after suspension stirring 7 days; for interconversion rate of crystalline form III and crystalline form XVIII: suspension stirring 7 days
[2] = Evaluation of hygroscopicity by Dynamic Moisture Sorption Analyzer (DVS), with XRPD before and after DVS; details: for hygroscopicity (in words) / moisture adsorption: DVS, 80% RH/25° C.; for moisture adsorption: humidity cycle 0% RH-95% RH-0% RH; for crystalline form after the DVS test (XRPD): XRPD of the sample after the DVS test
[3] = Stability test (1): physical and chemical stability by XRPD and HPLC at 80° C., 40° C./75% RH and 25° C./60% RH; details: for chemical stability: degradation (HPLC purity) / physical stability: crystalline form (XRPD): 80° C. (sealed) 24 hours, 40° C./75% RH and 25° C./60% RH (open) 1 week; for purity (area %): HPLC
Procedure: (sealed) for 24 hours, at 40° C./75% RH and 25° C./60% RH (open) for 1 week, respectively. The physical and chemical stability of the samples were tested by XRPD and HPLC.

[4] = Suspension competitive agitation test between anhydrous crystalline forms I, III, XV, XVII and XVIII (IPA, MTBE; solid tested by XRPD); details: solid by XRPD after suspension stirring 3 days

stability of crystalline form III and crystalline form XVIII relative to each other ([1]; room temperature)	interconversion rate of crystalline form III and crystalline form XVIII ([1]; room temperature)	hygroscopicity (in words) [2]	moisture adsorption [2]	crystalline form after the DVS test (XRPD) [2]	chemical stability: degradation (HPLC purity) [3]	physical stability: crystalline form (XRPD) [3]	purity (area %) ([3]; 25° C./60% RH 1 week (open))	purity (area %) ([3]; 40° C./75% RH 1 week (open))	purity (area %) ([3]; 80° C. 24 hours (sealed))	purity (area %) ([3]; starting point)	other results	SMILES
											Crystalline Form ([1]; EtOAc, 50° C.): Crystalline Form III; Crystalline Form ([1]; EtOAc, 70° C.): Crystalline Form III; Crystalline Form ([1]; EtOAc, room temperature): Crystalline Form V; Crystalline Form ([1]; MTBE, 50° C.): Crystalline Form III; Crystalline Form ([1]; MTBE, 70° C.): Crystalline Form III; Crystalline Form ([1]; n-Butyl alcohol, 50° C.): Crystalline Form III; Crystalline Form ([1]; n-Butyl alcohol, 70° C.): Crystalline Form III	O=C(NS(=O)(=O)c1ccc(NC[C@H]2COCCO2)c([N+](=O)[O-])c1)c1ccc(N2CCN(CC3=C(c4ccc(Cl)cc4)CC4(CCC4)CC3)CC2)cc1Oc1cnc2[nH]ccc2c1 [listing 1 of 2 here]
similar	relatively slow	almost no moisture absorption	0.04%	did not change	did not degrade	did not change	99.60 area %	99.61 area %	99.61 area %	99.48 area %		O=C(NS(=O)(=O)c1ccc(NCC2COCCO2)c([N+](=O)[O-])c1)c1ccc(N2CCN(CC3=C(c4ccc(Cl)cc4)CC4(CCC4)CC3)CC2)cc1Oc1cnc2[nH]ccc2c1 (single isomer, unassigned) [crystalline form XVIII]
similar	relatively slow	slight hygroscopicity	0.9%	did not change	did not degrade	did not change	98.66 area %	98.67 area %	98.64 area %	98.65 area %		O=C(NS(=O)(=O)c1ccc(NCC2COCCO2)c([N+](=O)[O-])c1)c1ccc(N2CCN(CC3=C(c4ccc(Cl)cc4)CC4(CCC4)CC3)CC2)cc1Oc1cnc2[nH]ccc2c1 (single isomer, unassigned) [crystalline form III]
											Crystalline Form ([4]; IPA, 50° C.): Crystalline Form III; Crystalline Form ([4]; IPA, 70° C.): Crystalline Form III; Crystalline Form ([4]; IPA, room temperature): Crystalline Form III; Crystalline Form ([4]; MTBE, 50° C.): Crystalline Form III; Crystalline Form ([4]; MTBE, 70° C.): Crystalline Form III; Crystalline Form ([4]; MTBE, room temperature): Crystalline Form III	O=C(NS(=O)(=O)c1ccc(NC[C@H]2COCCO2)c([N+](=O)[O-])c1)c1ccc(N2CCN(CC3=C(c4ccc(Cl)cc4)CC4(CCC4)CC3)CC2)cc1Oc1cnc2[nH]ccc2c1 [listing 2 of 2 here]
					did not degrade	did not change	99.42 area %	99.45 area %	99.42 area %	99.43 area %		O=C(NS(=O)(=O)c1ccc(NCC2COCCO2)c([N+](=O)[O-])c1)c1ccc(N2CCN(CC3=C(c4ccc(Cl)cc4)CC4(CCC4)CC3)CC2)cc1Oc1cnc2[nH]ccc2c1 (centres unmarked) [amorphous form XXV]
